The values below come from PMC10952582, “Pregnenolone sulfate analogues differentially modulate GABAA receptor closed/desensitised states” (British Journal of Pharmacology, 2023).

In assay [1] the target is T1, α1F295A, F399Aβ3γ2L GABAAR (Mus musculus, UniProt P22723+P62812+P63080, F322A/F426A).
T1 construct: expressed in transfected cells; host or cells: HEK 293 cells (ATCC CRL-1573)
The assay is described as follows: Whole-cell voltage-clamp electrophysiology, mutant α1F295A,F399Aβ3γ2L in HEK cells. The class given is cell-based, murine. The procedure:
(§1) HEK 293 cells (ATCC Cat# CRL‐1573, RRID:CVCL_0045) were maintained and transfected under standard conditions. In brief, cells were grown in monolayers in Dulbecco's modified Eagle's medium supplemented with 10% v/v fetal calf serum, 100 U·ml^−1 of penicillin‐G and 100 μg·ml^−1 of streptomycin and incubated at 37°C in humidified 95% air/5% CO2.
(§2) Before transfection, HEK cells were plated onto 22 mm of glass coverslips (VWR) coated in poly‐L‐lysine (Sigma). Cells were transfected with α1 (wild‐type [wt] or mutant [mut]), β3 (wt), γ2L (wt or mut) and enhanced green fluorescent protein (eGFP) in an equimolar ratio (1:1:1:1), using a calcium‐phosphate precipitation protocol. The transfection solution was prepared from 4 μg of cDNA per coverslip, 20 μl of 340 mM of CaCl2 and 24 μl of 2× HEPES‐buffered saline (HBS) (50 mM of HEPES, 280 mM of NaCl and 2.8 mM of Na2HPO4). Cells were selected for electrophysiology after 16–30 h based on their morphology and moderate GFP fluorescence.
(§3) Coverslips with transfected HEK cells were transferred into a recording chamber on a Nikon Eclipse FN1 microscope with a 470‐nm LED for GFP fluorescence. Cells were continuously perfused with Krebs solution containing (mM) 140 NaCl, 4.7 KCl, 1.2 MgCl2, 2.52 CaCl2, 11 glucose and 5 HEPES (pH 7.4). Patch pipettes (thin‐walled filamented borosilicate glass capillaries; TW150F‐4; WPI, USA; 3–4 MΩ) were filled with an intracellular solution containing (mM) 140 CsCl, 2 NaCl, 2 MgCl2, 5 EGTA, 10 HEPES, 0.5 CaCl2, 2 Na‐ATP and 0.5 Na‐GTP (pH 7.2). Drugs were applied to cells using a Y‐tube delivery system (Mortensen & Smart, [2007]), with the PS analogues pre‐applied 10–12 s before co‐application with GABA.
(§4) HEK cells were voltage clamped at −30 mV using an Axopatch 200B amplifier (Molecular Devices, USA), and whole‐cell currents were filtered at 5 kHz (−36 dB), digitised at 50 kHz via a Digidata 1322A (Molecular Devices) and recorded to a Dell Optiplex 990 using Clampex 10.2 (Molecular Devices). Series resistance was compensated at 60%–70%, and only data with <20% deviation in series resistance would be included in subsequent analyses.
(§5) Weighted time constants for the decay phase (τw) were calculated by fitting a biexponential curve to the current decay waveform and applying the following equation: τw=A1.τ1+A2.τ2/A1+A2, where τ1 and τ2 represent time constants for the two exponential components of the decay phase and A1 and A2 are their relative area contributions.
(§6) Current responses from voltage‐clamp experiments were measured, and decays fitted using ClampFit 10.2 (Molecular Devices) to determine the respective time constants. In Origin, data were plotted as concentration–response curves, and curves fitted using the following inhibition equation: I/Imax=1−B^n/IC50^n+B^n, where I is the current response, B is the concentration of the PS analogue, n is the slope coefficient and IC50 is the analogue concentration producing 50% inhibition of GABA current (inhibitory potency). Potency values are presented as pIC50 with SEM values. The mean was transformed into a molar concentration by pIC50 = −log IC50. Other data are represented as the mean ± SEM.

A further assay deals with T2, α1F399Aβ3γ2L GABAAR (Mus musculus, UniProt P22723+P62812+P63080, F426A).
T2 construct: expressed in transfected cells; host or cells: HEK 293 cells (ATCC CRL-1573)
The assay is described as follows: Whole-cell voltage-clamp electrophysiology, mutant α1F399Aβ3γ2L in HEK cells. The class given is cell-based, murine. The procedure:
as §1, §2, §3, §4, §5
Current responses from voltage‐clamp experiments were measured, and decays fitted using ClampFit 10.2 (Molecular Devices) to determine the respective time constants. […]

The target of a further assay is T3, α1β3γ2LV262F GABAAR (Mus musculus, UniProt P62812).
T3 construct: expressed in transfected cells; host or cells: HEK 293 cells (ATCC CRL-1573)
The assay can be described thus: Whole-cell voltage-clamp electrophysiology, highly desensitising mutant α1β3γ2LV262F in HEK cells. It counts as cell-based, murine. The protocol: as §1, §2, §3, §4, §5, §6

Assay [2] has as its target T4, α1β3γ2L GABAAR (Mus musculus, UniProt P62812).
T4 construct: expressed in transfected cells; host or cells: HEK 293 cells (ATCC CRL-1573)
The assay can be described thus: Whole-cell voltage-clamp electrophysiology, wild-type α1β3γ2L GABAARs expressed in HEK cells. The class given is cell-based, murine. The conditions noted are these: 1 nM PS analogue; 30 μM GABA. The procedure: as §1, §2, §3, §4, §5, §6

Assay [3] has as its target T5, α1β3γ2L GABAAR (Mus musculus, UniProt P22723+P62812+P63080).
T5 construct: expressed in transfected cells; host or cells: HEK 293 cells (ATCC CRL-1573)
Described as above. It counts as cell-based, murine. The protocol:
as §1, §2, §3, §4, §5, §6

Assay [4] has as its target T4, α1β3γ2L GABAAR. The assay is described as follows: Kinetic modelling and waveform fitting of GABA currents (ChanneLab). The arrangement: species or system murine. As to conditions: waveform fit, 30 μM GABA. The procedure:
We used ChanneLab (Version 2.2; Synaptosoft) to build relatively simple kinetic models of the GABAAR. To explore the functional behaviour of PS analogues (compounds) 5 and 6, we incorporated concentration‐dependent PS analogue‐bound states into the model. Simulated currents were generated in ChanneLab and explored at different GABA and PS analogue concentrations. These were evaluated against GABA currents generated under experimental conditions, using the waveform fitting function in ChanneLab. Rate constants connecting receptor states were determined initially empirically with reference to previously published values and varied individually to optimise the fit to the data (seed values) prior to using waveform fitting and Runge–Kutta numerical integration (RK5) to eventually simulate the experimental GABA current profiles with 50 iterations. GABA‐activated membrane currents were fitted over their full timecourse of 20 s.
To investigate, simplified GABAAR models were constructed, incorporating some or all the following receptor states: an unbound closed state (R); GABA‐bound closed ‘composite’ state (RA) that incorporates one or more preactivation states that are not explicitly indicated or a closed (RA) and separate preactivated (RfA) state; a GABA‐bound activated state (RA*); and a desensitised state (RD) accessed via the receptor's activated state. These simple models enable the generation of simulated GABA‐dependent currents, with values for the rate constants determined initially empirically in broad accord with published parameters and manually adjusted to provide seed values before performing waveform fitting with unconstrained rate constants (Figure 8a).
RA* is the activated receptor open channel before moving to a desensitised state RD.

Another assay addresses T6, α1V296Lβ3γ2L GABAAR (Mus musculus, UniProt P22723+P62812+P63080, V323L).
T6 construct: expressed in transfected cells; host or cells: HEK 293 cells (ATCC CRL-1573)
The assay can be described thus: Whole-cell voltage-clamp electrophysiology, minimally desensitising mutant α1V296Lβ3γ2L in HEK cells. It counts as cell-based, murine. The protocol: as §1, §2, §3, §4, §5, §6

Another assay has as its target T7, α1F295Aβ3γ2L GABAAR (Mus musculus, UniProt P22723+P62812+P63080, F322A).
T7 construct: expressed in transfected cells; host or cells: HEK 293 cells (ATCC CRL-1573)
The assay can be described thus: Whole-cell voltage-clamp electrophysiology, mutant α1F295Aβ3γ2L in HEK cells. It counts as cell-based, murine. The protocol:
as §1, §2, §3, §4, §5, §6

Where [5] appears, read: Decay inhibition (pIC50), GABA current weighted decay time constant.
[6] abbreviates: Steady-state inhibition (pIC50), 30 μM GABA, 20 s.
[7] abbreviates: Steady-state inhibition (pIC50), steady-state GABA current.
Setting [8] is: Decay inhibition (pIC50), potency for reducing GABA current weighted decay time constant, 30 μM GABA.
Setting [9] is: Peak inhibition (pIC50), peak current evoked by 30 μM GABA, analogue pre-applied 10–12 s and co-applied.
The mark [10] stands for this setting: Steady-state inhibition (IC50), GABA current after 20 s of 30 μM GABA (near steady state).
[11] abbreviates: Steady-state inhibition (pIC50), GABA current after 20 s of 30 μM GABA (near steady state).

Molecules are shown by their SMILES.

T4 sequence (P62812 28-455): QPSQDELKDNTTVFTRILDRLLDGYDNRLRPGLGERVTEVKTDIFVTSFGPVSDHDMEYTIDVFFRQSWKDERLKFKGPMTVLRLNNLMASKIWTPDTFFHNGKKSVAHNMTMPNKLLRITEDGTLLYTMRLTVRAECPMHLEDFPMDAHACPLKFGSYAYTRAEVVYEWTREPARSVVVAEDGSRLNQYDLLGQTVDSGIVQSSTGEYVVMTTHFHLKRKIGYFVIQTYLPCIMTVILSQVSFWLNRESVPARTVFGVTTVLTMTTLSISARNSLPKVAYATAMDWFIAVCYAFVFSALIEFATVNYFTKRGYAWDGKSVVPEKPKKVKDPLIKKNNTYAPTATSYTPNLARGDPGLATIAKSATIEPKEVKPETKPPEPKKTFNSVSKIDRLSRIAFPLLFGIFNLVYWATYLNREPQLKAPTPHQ
T4 sequence (P63080 26-473 partner): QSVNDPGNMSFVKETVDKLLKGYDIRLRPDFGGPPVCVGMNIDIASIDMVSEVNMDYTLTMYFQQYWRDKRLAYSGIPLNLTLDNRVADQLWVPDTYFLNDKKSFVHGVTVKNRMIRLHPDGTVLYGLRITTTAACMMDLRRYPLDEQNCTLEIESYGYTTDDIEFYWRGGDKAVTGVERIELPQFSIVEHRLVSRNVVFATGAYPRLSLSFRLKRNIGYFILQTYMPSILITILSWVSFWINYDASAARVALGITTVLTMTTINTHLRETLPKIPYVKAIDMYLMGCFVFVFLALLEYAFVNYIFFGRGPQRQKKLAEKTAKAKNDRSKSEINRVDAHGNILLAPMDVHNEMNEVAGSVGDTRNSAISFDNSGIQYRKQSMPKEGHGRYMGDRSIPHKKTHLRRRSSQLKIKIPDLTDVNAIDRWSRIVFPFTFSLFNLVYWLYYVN
T4 sequence (P22723 39-474 partner): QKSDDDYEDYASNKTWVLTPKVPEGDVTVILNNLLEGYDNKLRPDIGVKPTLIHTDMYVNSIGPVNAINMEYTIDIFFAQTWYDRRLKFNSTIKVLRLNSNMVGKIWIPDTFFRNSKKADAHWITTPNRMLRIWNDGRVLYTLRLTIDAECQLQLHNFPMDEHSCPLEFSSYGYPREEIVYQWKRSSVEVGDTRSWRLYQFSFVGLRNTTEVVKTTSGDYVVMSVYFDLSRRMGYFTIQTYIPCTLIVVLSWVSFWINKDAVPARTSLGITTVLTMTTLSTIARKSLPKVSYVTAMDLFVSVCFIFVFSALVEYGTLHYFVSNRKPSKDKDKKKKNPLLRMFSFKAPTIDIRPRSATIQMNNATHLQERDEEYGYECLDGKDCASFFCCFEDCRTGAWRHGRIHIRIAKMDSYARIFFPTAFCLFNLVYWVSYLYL
T5 sequence (P62812 28-455): as the sequence (P62812 28-455) above
T5 sequence (P63080 26-473 partner): as the sequence (P63080 26-473 partner) above
T5 sequence (P22723 39-474 partner): as the sequence (P22723 39-474 partner) above
T6 sequence (P62812 28-455 V323L): as the sequence (P62812 28-455) above, with V296L counted along it
T6 sequence (P63080 26-473 partner): as the sequence (P63080 26-473 partner) above
T6 sequence (P22723 39-474 partner): as the sequence (P22723 39-474 partner) above
T1 sequence (P62812 28-455 F322A/F426A): as the sequence (P62812 28-455) above, with F295A, F399A counted along it
T1 sequence (P63080 26-473 partner): as the sequence (P63080 26-473 partner) above
T1 sequence (P22723 39-474 partner): as the sequence (P22723 39-474 partner) above
T2 sequence (P62812 28-455 F426A): as the sequence (P62812 28-455) above, with F399A counted along it
T2 sequence (P63080 26-473 partner): as the sequence (P63080 26-473 partner) above
T2 sequence (P22723 39-474 partner): as the sequence (P22723 39-474 partner) above
T3 sequence (P62812 28-455): as the sequence (P62812 28-455) above
T3 sequence (P63080 26-473 partner): as the sequence (P63080 26-473 partner) above
T3 sequence (P22723 39-474 V300F partner): as the sequence (P22723 39-474 partner) above, with V262F counted along it
T7 sequence (P62812 28-455 F322A): as the sequence (P62812 28-455) above, with F295A counted along it
T7 sequence (P63080 26-473 partner): as the sequence (P63080 26-473 partner) above
T7 sequence (P22723 39-474 partner): as the sequence (P22723 39-474 partner) above

Take `C[C@]12CC[C@H](OS(=O)(=O)O)CC1=CCC1C2CC[C@@]2(C)C1CC[C@@H]2C(=O)CN1CCOCC1` (some centres unmarked) [compound 5]: the IC50 (as a rule, the concentration that gives 50% inhibition) was 7.21 µM in assay [1] (setting [5]); 5.22 µM in assay [1] (setting [6]); 7.89 µM against α1F399Aβ3γ2L GABAAR (setting [5]); 8.36 µM against α1F399Aβ3γ2L GABAAR (setting [6]); 70.8 µM on α1β3γ2LV262F GABAAR (setting [5]); 14.2 µM on α1β3γ2LV262F GABAAR (setting [7]). Further, the concentration for half-maximal inhibition (IC50) against α1β3γ2L GABAAR [3] (setting [8]) was 117 µM; at α1β3γ2L GABAAR [3] (setting [9]) it was ~2000 µM; against α1β3γ2L GABAAR [3] (setting [10]) it was ~1 µM; on α1β3γ2L GABAAR [3] (setting [11]), 0.843 µM; on α1V296Lβ3γ2L GABAAR (setting [5]) it was 3.24 µM; on α1V296Lβ3γ2L GABAAR (setting [7]), 20.7 µM. Besides, the half-maximal inhibitory concentration (IC50) against α1F295Aβ3γ2L GABAAR (setting [5]) was 8.47 µM; on α1F295Aβ3γ2L GABAAR (setting [6]), 2.93 µM. For the same compound, the “mean (weighted) decay time (τw) of GABA current” value (“mean (weighted) decay time (τw)” for short) on α1β3γ2L GABAAR [2] is reported as 3.7 ± 0.1 s. For the same compound, on α1β3γ2L GABAAR [4] (Model (b): binding to RA forming RAP, then RAPd), the “rate constant k2, Model (b)” value came out at 62900 M⁻¹ s⁻¹. Moreover, on α1β3γ2L GABAAR [4] (Model (b)), the “rate constant k3, Model (b)” value was 921000 s⁻¹.
On to `CC12CCC(OS(=O)(=O)O)CC1=CCC1C2CCC2(C)C(C(=O)Cn3cccc3)CCC12` (centres unmarked) [compound 8], for which the “mean (weighted) decay time (τw)” value on α1β3γ2L GABAAR [2] is 3.6 ± 0.3 s. For the same compound, the IC50 on α1β3γ2L GABAAR [3] (setting [8]) is 3.23 µM; against α1β3γ2L GABAAR [3] (setting [9]) it was 33.3 µM; on α1β3γ2L GABAAR [3] (setting [11]), 0.236 µM.
Regarding `C[C@]12CC[C@H](OS(=O)(=O)O)CC1=CCC1C2CC[C@@]2(C)C1CC[C@@H]2C(=O)Cn1ccnc1` (some centres unmarked) [compound 3], the “mean (weighted) decay time (τw)” value at α1β3γ2L GABAAR [2] amounted to 3.8 ± 0.8 s. Further, the IC50 at α1β3γ2L GABAAR [3] (setting [8]) was 8.51 µM; against α1β3γ2L GABAAR [3] (Peak inhibition (IC50), peak current evoked by 30 μM GABA, analogue pre-applied 10–12 s and co-applied), 743 µM; at α1β3γ2L GABAAR [3] (setting [10]), ~1 µM; on α1β3γ2L GABAAR [3] (setting [11]), 0.891 µM.
